Measurements taken from ChEMBL document CHEMBL1201862, “PubChem BioAssay data set” (2004).
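96-well plates; 48 h exposure; 5 concentrations. Endpoints by linear interpolation between flanking doses. Not reached: highest tested concentration assigned. GI50 = concentration required for 50% inhibition of growth.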 Active and inactive are the calls of the source. No stated cut-off is given here; in the data, active = GI50 up to about 1.1 µM and inactive = higher.

Key:
Assay in all cases: growth of human tumour cells (NCI), 48 h
SR = test system: SR
NCI-H522 = test system: NCI-H522
CCRF-CEM = test system: CCRF-CEM
K562 = test system: K562
EKVX = test system: EKVX
RXF 393 = test system: RXF 393
NCI-H460 = test system: NCI-H460
UO-31 = test system: UO-31
T47D = test system: T47D
HCT-116 = test system: HCT-116
M14 = test system: M14
A549 = test system: A549
MDA-MB-231 = test system: MDA-MB-231
SF-539 = test system: SF-539
OVCAR-4 = test system: OVCAR-4

Row | Structure (SMILES) | GI50 (SR) | GI50 (NCI-H522) | GI50 (CCRF-CEM) | GI50 (K562) | GI50 (EKVX) | GI50 (RXF 393) | GI50 (NCI-H460) | GI50 (UO-31) | GI50 (T47D) | GI50 (HCT-116) | GI50 (M14) | GI50 (A549) | GI50 (MDA-MB-231) | GI50 (SF-539) | GI50 (OVCAR-4)
1 | NCCCC[C@H](N)C(=O)Nc1ccc(-c2nc3ccccc3s2)cc1Cl | 2.36 µM (inactive) | 4.84 µM (inactive) | 3.28 µM (inactive) | 2.74 µM (inactive) | 5.6 µM (inactive) | 12.4 µM (inactive) | 0.271 µM (active) | 6.35 µM (inactive) | < 0.0478 µM (active) | 0.713 µM (active) | 3.55 µM (inactive) | 2.96 µM (inactive) | 11.6 µM (inactive) | – | –
2 | CSc1nc(-c2ccc(C)cc2)c(C#N)c(=O)[nH]1 | – | > 100 µM (inactive) | > 100 µM (inactive) | > 100 µM (inactive) | > 100 µM (inactive) | > 100 µM (inactive) | > 100 µM (inactive) | 52 µM (inactive) | 40.5 µM (inactive) | > 100 µM (inactive) | > 100 µM (inactive) | > 100 µM (inactive) | > 100 µM (inactive) | > 100 µM (inactive) | > 100 µM (inactive)
3 | O=c1[nH]nc(-c2ccccc2)n1/N=C/c1ccco1 | > 100 µM (inactive) | > 100 µM (inactive) | > 100 µM (inactive) | – | > 100 µM (inactive) | > 100 µM (inactive) | > 100 µM (inactive) | > 100 µM (inactive) | > 100 µM (inactive) | > 100 µM (inactive) | > 100 µM (inactive) | > 100 µM (inactive) | – | > 100 µM (inactive) | 30.1 µM (inactive)
4 | CSC(=S)N/N=C(\C)c1ccc(S(=O)(=O)N(C)c2ccccc2)cc1 | 5.19 µM (inactive) | – | – | 13.9 µM (inactive) | 21.8 µM (inactive) | 77.8 µM (inactive) | 5.13 µM (inactive) | 15.7 µM (inactive) | 66.5 µM (inactive) | 14.3 µM (inactive) | 25.5 µM (inactive) | 29.1 µM (inactive) | 98.4 µM (inactive) | 48.3 µM (inactive) | 25.6 µM (inactive)
5 | CC(C)CNC(=O)Cn1c2c(c3ccccc31)CCCC2 | > 100 µM (inactive) | – | 56.4 µM (inactive) | 76.9 µM (inactive) | 71 µM (inactive) | – | 64.1 µM (inactive) | 28.3 µM (inactive) | – | 27.8 µM (inactive) | > 100 µM (inactive) | 49.7 µM (inactive) | – | > 100 µM (inactive) | 35.4 µM (inactive)
6 | CC(=O)C1(C(=O)C(=[N+]=[N-])S(=O)(=O)c2ccccc2)CC1 | > 100 µM (inactive) | > 100 µM (inactive) | 40.2 µM (inactive) | 80.4 µM (inactive) | > 100 µM (inactive) | > 100 µM (inactive) | > 100 µM (inactive) | > 100 µM (inactive) | – | > 100 µM (inactive) | > 100 µM (inactive) | > 100 µM (inactive) | > 100 µM (inactive) | > 100 µM (inactive) | –
7 | C=CCOC1=C(OC(C)=O)C(C2COC(C)(C)O2)OC1=O (stereo not drawn) | – | 2.19 µM (inactive) | 17.4 µM (inactive) | 18 µM (inactive) | 20.1 µM (inactive) | 21.2 µM (inactive) | 22 µM (inactive) | 18.6 µM (inactive) | 18.5 µM (inactive) | 17.6 µM (inactive) | 21.2 µM (inactive) | 24 µM (inactive) | 17.1 µM (inactive) | 33.2 µM (inactive) | 21.5 µM (inactive)
8 | CC[N+](CC)(CC)/C(=N\S(=O)(=O)c1ccc(Cl)cc1)[N-]S(=O)(=O)c1cc(C)c(Cl)cc1S | – | 60.5 µM (inactive) | 59.3 µM (inactive) | 6.65 µM (inactive) | > 100 µM (inactive) | 78.2 µM (inactive) | 41 µM (inactive) | > 100 µM (inactive) | > 100 µM (inactive) | 26.5 µM (inactive) | 39.3 µM (inactive) | – | > 100 µM (inactive) | 57.3 µM (inactive) | 65.5 µM (inactive)
9 | O=S(=O)(O)c1cc(S(=O)(=O)O)c2c(/N=N/c3ccccc3)c(O)ccc2c1 | – | – | > 100 µM (inactive) | > 100 µM (inactive) | – | > 100 µM (inactive) | – | > 100 µM (inactive) | > 100 µM (inactive) | > 100 µM (inactive) | > 100 µM (inactive) | > 100 µM (inactive) | > 100 µM (inactive) | – | > 100 µM (inactive)
10 | COc1ccc(C2=C(OC(=O)N(C)C)c3cccn3-c3cc(Cl)ccc3S2)cc1 | 6.38 µM (inactive) | – | 8.07 µM (inactive) | 8.91 µM (inactive) | > 10 µM (inactive) | > 10 µM (inactive) | – | – | 5.3 µM (inactive) | – | > 10 µM (inactive) | > 10 µM (inactive) | > 10 µM (inactive) | – | 6.79 µM (inactive)
11 | Cn1c(O)c(C2=Nc3ccccc3C2=O)c2ccccc21 | > 100 µM (inactive) | > 100 µM (inactive) | > 100 µM (inactive) | > 100 µM (inactive) | > 100 µM (inactive) | > 100 µM (inactive) | > 100 µM (inactive) | > 100 µM (inactive) | > 100 µM (inactive) | > 100 µM (inactive) | > 100 µM (inactive) | > 100 µM (inactive) | > 100 µM (inactive) | – | > 100 µM (inactive)
